The source made the active and inactive calls. No cut-off for these calls is given here.

For data set [1], the species on record is Mus musculus. Put plainly: Myorelaxant effect in ddY mouse assessed as decrease in endurance latency time by rota-rod test. In kind it is functional, organism-based.
Data set [2] can be described thus: Sedative activity in ddY mouse assessed as decrease in spontaneous locomotor activity at 0.00004 mg administered via inhalation relative to control. Set-up: scale not given: the % may be the effect or the level left. To be noted: in vivo, inhaled_or_intranasal, at 40 ng.
Data set [3] concerns Mus musculus. Description: Sleep-promoting activity in ddY mouse assessed as enhancement of pentobarbital-induced sleep resulting in prolonged sleeping time at 0.004 mg administered via inhalation relative to control. In kind it is functional.
A short description of data set [4]: Sedative activity in ddY mouse assessed as decrease in spontaneous locomotor activity when administered via inhalation relative to control. Set-up: scale not given: the % may be the effect or the level left. As to conditions: in vivo, inhaled_or_intranasal.
Data set [5] can be described thus: Sedative activity in ddY mouse assessed as decrease in spontaneous locomotor activity at 0.0004 mg administered via inhalation relative to control. Set-up: scale not given: the % may be the effect or the level left. To be noted: in vivo, inhaled_or_intranasal.
The nature of data set [6]: Sedative activity in ddY mouse assessed as decrease in spontaneous locomotor activity at 0.004 mg administered via inhalation relative to control. Set-up: scale not given: the % may be the effect or the level left. As to conditions: in vivo, inhaled_or_intranasal.
Data set [7] is described as follows: Sedative activity in ddY mouse assessed as decrease in spontaneous locomotor activity at 0.04 mg administered via inhalation relative to control. Set-up: scale not given: the % may be the effect or the level left. To be noted: in vivo, inhaled_or_intranasal.
Data set [8] is described as follows: Sedative activity in ddY mouse assessed as decrease in spontaneous locomotor activity at 0.4 mg administered via inhalation relative to control. To be noted: in vivo, inhaled_or_intranasal. Set-up: scale not given: the % may be the effect or the level left.
Data set [9] in a line: Toxicity in mouse assessed as lethal dose. To be noted: in vivo.
A short description of data set [10]: Sedative activity in ddY mouse assessed as decrease in caffeine-induced spontaneous locomotor activity at 0.004 mg administered via inhalation post caffeine stimulation (reference value: 68 %). Set-up: scale not given: the % may be the effect or the level left. To be noted: in vivo, inhaled_or_intranasal.
Data set [11] relates to Mus musculus. Description: Myorelaxant effect in ddY mouse assessed as decrease in endurance latency time at 0.004 mg administered via inhalation by rota-rod test. The format is functional, organism-based. (Falling from the rotarod earlier than controls is read as motor impairment.)
The subject of data set [12] is Mus musculus. Put plainly: Sleep-promoting activity in ddY mouse assessed as decrease in pentobarbital-induced sleep ing duration at 3 mg/kg relative to control. The format is functional. Set-up: scale not given: the % may be the effect or the level left.
The test system of data set [13] is Mus musculus. Description: Sleep-promoting activity in ddY mouse assessed as enhancement of pentobarbital-induced sleep resulting in prolonged sleeping time at 0.000004 mg administered via inhalation relative to control. The format is functional. To be noted: dose 4 ng.
The nature of data set [14]: Sedative activity in ddY mouse assessed as decrease in caffeine-induced spontaneous locomotor activity at 0.000004 mg administered via inhalation post caffeine stimulation (reference value: 68 %). Set-up: scale not given: the % may be the effect or the level left. To be noted: in vivo, inhaled_or_intranasal, at 4 ng.
Data set [15] has as its system Mus musculus. Put plainly: Myorelaxant effect in ddY mouse assessed as decrease in endurance latency time at 0.000004 mg administered via inhalation by rota-rod test. In kind it is functional, organism-based. To be noted: dose 4 ng.

Consider `CN1C(=O)CN=C(c2ccccc2)c2cc(Cl)ccc21`, for which, in the data set filed under Mus musculus [1], the outcome was Active.

Turning to `CC(C)C12C=CC(C)(CC1)OO2` (configuration not stated) [ASCARIDOLE], the Activity turned out to be 64% in data set [2]; 42% in the data set with Mus musculus [3]; 56% in [4]; 52% in data set [5]; 67% in data set [6]; 64% in [7]. Besides, the Activity in data set [8] worked out at 56%; in [10], 47%. The 50% lethal dose (LD50) in data set [9] came out at 400 mg/kg. Also, the result in the data set on Mus musculus [11] was inactive.

As to `CCOC(=O)c1ncn2c1CN(C)C(=O)c1cc(F)ccc1-2` [FLUMAZENIL], the Activity in the data set on Mus musculus [12] came to 31%.

For `Cc1ccc(C(C)C)cc1` [P-CYMENE], the Activity in [2] turned out to be 69%; in the data set with Mus musculus [13] it was 77%; in data set [4], 63%; in data set [5], 57%; in data set [6], 61%; in data set [7], 67%. Besides, the Activity in [8] worked out at 68%; in [14], 50%. Besides, the LD50 in [9] is 4750 mg/kg. Further, the result in the data set on Mus musculus [15] was inactive.

As usually defined, the LD50 is the dose expected to kill half of the subjects tested.
